Key:
subjects with dry eye = test: Tear film break up time (TFBUT), Example 1 clinical study; assay type: in vivo, human; settings: for Tear Film Break Up Time, change from baseline (mean): visit 2 (baseline) to visit 5, 0.05% and 0.1% groups pooled; for Tear Film Break Up Time, Mean Difference between Tβ4 and Placebo (Tβ4-Placebo): visit 2 to visit 5
Description: As used herein, the terms “tear breakup time” or “TBUT” or “tear film breakup time” or “TFBUT” can refer to a clinical test that measures the interval between the individual's last complete blink and the breakup of the tear film. The test can be used to assess for DES. To measure TBUT, fluorescein is instilled into the patient's tear film and the patient is asked not to blink while the tear film is observed under a broad beam of cobalt blue illumination. The TBUT is recorded as the number of seconds that elapse between the last blink and the appearance of the first dry spot in the tear film.
The presently disclosed subject matter also provides for methods of improving tear film stability. Tear film stability can be evaluated by various assessments in the art, including but not limited to a TFBUT analysis. […] In order to achieve maximum fluorescence, an appropriate waiting period is implemented after instillation before evaluating TFBUT. With the aid of a slit-lamp, the integrity of the tear film can be monitored by noting the time it takes to form […] from the time that the eye is opened. TFBUT can be measured in seconds using a stopwatch and a digital image recording system for one eye followed by the second eye. A negative test result is normal, whereby more than about 10 seconds of TFBUT is recorded.
This study was a multicenter, randomized, double-masked study designed to evaluate the efficacy and safety of 0.05% and 0.1% Tβ4 ophthalmic solution compared to placebo in subjects with dry eye.
The study consisted of two periods: a 7-day run-in period and a 28-day treatment period.
The clinical dosage form and packaging of Tβ4 ophthalmic solution and the placebo ophthalmic solutions were identical sterile, low-density polyethylene unit-dose non-preserved bottles. They were packaged in foil-wrap pouches to prevent light exposure, each containing single-use bottles. Throughout the study, between day 1 and day 29, patients were instructed to instill one drop of study medication in each eye four times daily, once in the morning, noon, afternoon and in the evening before bed. Patients were assigned randomization kit numbers in strict numerical sequence, using a code generated by an independent biostatistician. All investigators, study and site personnel, and patients were masked to the treatment assignments.
Patients were evaluated on day 8 (visit 3), day 15 (visit 4), and day 29 (visit 5) during the dosing period. Exposure to the CAE occurred on days 14 and 28. At each study visit, a panel of dry eye signs and symptoms and safety measures were evaluated (including both before [pre-CAE] and after [post-CAE] exposure).

[1] = injectable solution, 14 consecutive days, four escalating dose levels; cited from earlier work
[2] = higher tear film stability group
[3] = lower tear film stability group

## thymosin beta 4 [Tβ4]
Subjects with dry eye; [2]
  Tear Film Break Up Time, change from baseline (mean): 0.14 s
  Tear Film Break Up Time, Mean Difference between Tβ4 and Placebo (Tβ4-Placebo): 0.09 s
Subjects with dry eye; [3]
  Tear Film Break Up Time, change from baseline (mean): 0.74 s
  Tear Film Break Up Time, Mean Difference between Tβ4 and Placebo (Tβ4-Placebo): 0.20 s
[1]
  safety and tolerability: safe and well-tolerated

From patent publication US20210213103A1, “METHODS OF TREATING DRY EYE SYNDROME” (REGENTREE, LLC, priority 2016, published 2021)
